Results reported in patent US20240240224A1, “FLUORESCENT D-TYPE AMINO ACID METABOLISM MARKER-BASED METHOD FOR DETECTING ANTIBACTERIAL DRUG SENSITIVITY TEST” (priority 2020, published 2024).

Experiments:
P. aeruginosa Pa2 = test: FaAST (FDAA metabolic labeling); format: cell-based, Pseudomonas aeruginosa; conditions: unit assumed
Experimental: The specific experimental steps are as follows: • 1. Take the colony to be tested that has been cultured overnight on the plate and fully mix it in normal saline to make a uniform bacterial solution. Dilute it into CAMHB medium to make a bacterial solution with OD600=0.05. • 2. Add 45 μl antibiotic solutions to be tested of different concentrations to 96-well plates (see Table 3 for antibiotic concentration gradient settings). • 3. Add 50 μl of bacterial solution prepared in Step 1 to the 96-well plate and mix well. • 4.5 μl of 10 mM Cy5-DAA probe was added to each well (final concentration was 0.15 mM, and its structure was shown in FIG. 1). After mixing, the probe was incubated for 2 hours in the dark. • 5. After dilution with 200 μl PBS solution, the fluorescence intensity of each sample was detected by flow cytometry. The flow detection results are shown in the attached FIG. 4-5, showing the curve of antibiotic concentration gradient and fluorescence intensity, and the MIC (minimum inhibitory concentration) is obtained by referring to this curve.
Antibiotic resistant strains are shown in bold in the table below.

K. pneumoniae Kp6 [1] = test: BMD susceptibility test; format: cell-based, Klebsiella pneumoniae; conditions: unit assumed
E. faecium Ef26 = test: FaAST (FDAA metabolic labeling method); format: cell-based, Enterococcus faecium; conditions: unit assumed
Method in brief: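 Bacteria at OD600=0.05 in CAMHB exposed to antibiotic concentration gradients with Cy5-DAA probe […], 2 h in the dark. Fluorescence read by flow cytometry after PBS dilution; MIC taken from the curve of fluorescence intensity versus antibiotic concentration.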

E. coli Ec13 [2] = test: FaAST (FDAA metabolic labeling); format: cell-based, Escherichia coli; conditions: unit assumed
Method in brief: (§1)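 Bacteria at OD600=0.05 in CAMHB mixed with antibiotic dilutions plus Cy5-DAA probe at 0.15 mM final, then incubated 2 h in the dark. Cell-wall labeling fluorescence measured by flow cytometry after PBS dilution.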

E. faecium Ef28 = test: FaAST (FDAA metabolic labeling method); format: cell-based, Enterococcus faecium; conditions: unit assumed
Experimental: Take the colony to be tested that has been cultured overnight on the plate and fully mix it in normal saline to make a uniform bacterial solution. Dilute it into Cation-Adjusted Mueller Hinton Broth (CAMHB) culture medium to make a bacterial solution with OD600=0.05. • 2. Add 45 μl antibiotic solutions of different concentrations to 96-well plates (see Table 1 for antibiotic concentration gradient settings). • 3. Add 50 μl of the bacterial solution prepared in step 1 to the 96-well plate and mix well. • 4. Add 5 μl of 10 mM Cy5-DAA probe (final concentration 0.15 mM, see FIG. 1 for its structure) into each well, mix well, and cultivate in dark for 2 hours. • 5. Add 200 μl After PBS solution is diluted, the fluorescence intensity of each sample is detected by flow cytometry. […] The MIC (minimum inhibitory concentration) can be obtained by referring to this curve.

E. coli Ec13 [3] = test: BMD susceptibility test; format: cell-based, Escherichia coli; conditions: unit assumed
K. pneumoniae Kp6 [4] = test: FaAST (FDAA metabolic labeling); format: cell-based, Klebsiella pneumoniae; conditions: unit assumed
Method in brief: as §1

K. pneumoniae Kp9 = test: FaAST (FDAA metabolic labeling); format: cell-based, Klebsiella pneumoniae; conditions: unit assumed
Method in brief: as §1

S. aureus Sa23 = test: BMD susceptibility test; format: cell-based, Staphylococcus aureus; conditions: unit assumed
[5] = system: alveolar lavage fluid sample 0204, A. baumannii; test: BMD susceptibility test of patient alveolar lavage fluid; format: cell-based, Acinetobacter baumannii; conditions: unit assumed
[6] = system: bacteria contained in alveolar lavage fluid; test: Vitek 2 drug sensitivity test of alveolar lavage fluid; format: cell-based; for Sensibility: key: S: Drug sensitive; R: Drug resistance
A. baumannii Ab19 = test: BMD susceptibility test; format: cell-based, Acinetobacter baumannii; conditions: unit assumed
[7] = system: bacteria contained in alveolar lavage fluid; test: FDAA metabolic labeling susceptibility test of alveolar lavage fluid (Cy5-DAA probe); format: cell-based; conditions: alveolar lavage fluid of patients with hospital acquired pneumonia, 2 hours
Experimental: With reference to the flow chart of the rapid detection method of antimicrobial susceptibility test based on FDAA metabolic markers shown in FIG. 3, FDAA is used for the detection of antimicrobial susceptibility test of alveolar lavage fluid. The specific experimental steps are as follows: • 1. Mix bronchoalveolar lavage fluid (BALF, 10 ml) of patients with hospital acquired pneumonia with cation regulated broth medium (CAMHB, 10 ml) of twice the concentration to prepare the bacterial fluid to be tested. • 2. Add 45 μl antibiotic solutions of different concentrations to the 96-well plate separately (see Table 1 for antibiotic concentration gradient settings). • 3. Add 50 μl of the bacterial solution prepared in step 1 to the 96-well plate and mix well. • 4. Add 5 μl of 10 mM Cy5-DAA probe (final concentration 0.15 mM, see FIG. 1 for its structure) into each well, mix well, and then cultivate in dark for 2 hours. • 5. Add 200 μl PBS solution for dilution, and then use flow cytometry to detect the fluorescence intensity of each sample.

Ec ATCC 25922 [8] = test: BMD susceptibility test; format: cell-based, Escherichia coli; conditions: unit assumed
E. coli Ec11 = test: FaAST (FDAA metabolic labeling); format: cell-based, Escherichia coli; conditions: unit assumed
Method in brief: (§2)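 Bacteria diluted to OD600=0.05 in CAMHB were exposed to an antibiotic concentration series with Cy5-DAA probe […] for 2 h in the dark. Per-sample fluorescence was read by flow cytometry after PBS dilution. MIC was taken from the antibiotic concentration–fluorescence curve.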

Ec ATCC 25922 [9] = test: FaAST (FDAA metabolic labeling); format: cell-based, Escherichia coli; conditions: unit assumed
Method in brief: as §2

Structure (SMILES): C[C@H]1COc2c(N3CCN(C)CC3)c(F)cc3c(=O)c(C(=O)O)cn1c23 [Levofloxacin, levofloxacin]
- FaAST (MIC) (P. aeruginosa Pa2): 0.5 µg/mL
- BMD (MIC) (K. pneumoniae Kp6 [1]): ≤ 0.25 µg/mL
- FaAST (MIC) (E. faecium Ef26): 64 µg/mL
- FaAST (MIC) (E. coli Ec13 [2]): 4 µg/mL
- FaAST (MIC) (E. faecium Ef28): 64 µg/mL
- BMD (MIC) (E. coli Ec13 [3]): 4 µg/mL
- FaAST (MIC) (K. pneumoniae Kp6 [4]): 0.5 µg/mL
- FaAST (MIC) (K. pneumoniae Kp9): 128 µg/mL
- BMD (MIC) (S. aureus Sa23): 1 µg/mL
- BMD (MIC) [5]: 0.5 µg/mL
- MIC [6]: ≥ 8 µg/mL
- Sensibility [6]: R
- BMD (MIC) (A. baumannii Ab19): ≤ 0.25 µg/mL
- MIC, FDAA [7]: ≥32 µg/mL
- BMD (MIC) (Ec ATCC 25922 [8]): ≤ 0.25 µg/mL
- FaAST (MIC) (E. coli Ec11): 0.5 µg/mL
- FaAST (MIC) (Ec ATCC 25922 [9]): ≤ 0.25 µg/mL
